In ChEMBL document CHEMBL1157171, “Structure-based virtual screening against SARS-3CL(pro) to identify novel non-peptidic hits” (Bioorg Med Chem, 2008):

How the values were obtained:
Replicase polyprotein 1a = Replicase polyprotein 1a (Severe acute respiratory syndrome-related coronavirus, UniProt P0C6U8); assay: Inhibition of human SARS coronavirus 3C like protease
[1] = target: Replicase polyprotein 1a (Severe acute respiratory syndrome-related coronavirus) (UniProt P0C6U8); assay: Inhibition of human SARS coronavirus 3C like protease at 10 uM

Q: Which IC50 (Replicase polyprotein 1a) does the source give for `Cc1cc2cc(CN(CCc3ccccc3C)C(=O)NCc3ccccc3)c(=O)[nH]c2cc1C` here?
A: 17.2 µM

Q: What about the inhibition [1] of the same compound?
A: 40%

Q: How did the IC50 (Replicase polyprotein 1a) turn out when `O=C(CSc1nc(C2CCCCC2)nc2ccccc12)NCc1ccco1` was run?
A: 18.2 µM

Q: What about the inhibition [1] of the same compound?
A: 30%
